{
  "source": "paper doi:10.1101/2020.07.01.182642v1",
  "about": "(biorxiv, 2020)",
  "conditions_in_all_cases": "binder",
  "key": {"CAMK2B": {"target": "CAMK2B (Homo sapiens, UniProt Q13554)"}, "AKT3": {"target": "AKT3 (Homo sapiens, UniProt Q9Y243)", "sequence (Q9Y243 whole entry)": "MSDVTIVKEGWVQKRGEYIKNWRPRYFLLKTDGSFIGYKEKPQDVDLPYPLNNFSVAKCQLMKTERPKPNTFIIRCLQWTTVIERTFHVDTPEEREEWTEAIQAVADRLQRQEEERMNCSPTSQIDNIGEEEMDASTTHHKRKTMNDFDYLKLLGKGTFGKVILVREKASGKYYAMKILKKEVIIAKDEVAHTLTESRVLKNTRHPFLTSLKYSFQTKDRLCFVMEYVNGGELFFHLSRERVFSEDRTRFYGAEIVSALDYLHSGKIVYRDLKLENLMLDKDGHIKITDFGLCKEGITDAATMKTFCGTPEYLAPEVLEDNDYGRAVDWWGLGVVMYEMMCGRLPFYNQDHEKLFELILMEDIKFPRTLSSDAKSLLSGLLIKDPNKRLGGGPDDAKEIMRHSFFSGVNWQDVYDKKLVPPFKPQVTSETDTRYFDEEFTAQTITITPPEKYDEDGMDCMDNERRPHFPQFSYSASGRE"}, "MAPK13": {"target": "MAPK13 (Homo sapiens, UniProt O15264)"}, "STK32A": {"target": "STK32A (Homo sapiens, UniProt Q8WU08)"}, "CDK6": {"target": "CDK6 (Homo sapiens, UniProt Q00534)", "sequence (Q00534 whole entry)": "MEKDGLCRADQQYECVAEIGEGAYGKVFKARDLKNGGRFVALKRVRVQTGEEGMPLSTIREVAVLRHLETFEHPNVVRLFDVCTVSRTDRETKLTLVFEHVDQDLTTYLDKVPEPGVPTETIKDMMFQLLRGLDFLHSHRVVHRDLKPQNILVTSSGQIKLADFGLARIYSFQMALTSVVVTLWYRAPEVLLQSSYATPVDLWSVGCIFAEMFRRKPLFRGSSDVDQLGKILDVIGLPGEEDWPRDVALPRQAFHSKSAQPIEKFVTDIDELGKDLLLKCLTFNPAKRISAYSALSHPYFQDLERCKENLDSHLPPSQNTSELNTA"}, "IKBKB": {"target": "IKBKB (Homo sapiens, UniProt O14920)"}, "CDK4": {"target": "CDK4 (Homo sapiens, UniProt P11802)", "sequence (P11802 whole entry)": "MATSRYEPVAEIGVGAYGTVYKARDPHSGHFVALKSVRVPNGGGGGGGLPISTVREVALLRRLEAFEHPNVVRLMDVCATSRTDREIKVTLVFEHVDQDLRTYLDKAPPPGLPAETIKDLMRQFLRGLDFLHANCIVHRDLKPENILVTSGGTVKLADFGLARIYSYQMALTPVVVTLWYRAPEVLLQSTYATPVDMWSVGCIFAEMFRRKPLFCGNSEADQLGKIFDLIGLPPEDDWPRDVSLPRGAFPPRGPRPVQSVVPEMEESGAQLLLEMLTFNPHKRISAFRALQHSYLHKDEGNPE"}, "CDKL2": {"target": "CDKL2 (Homo sapiens, UniProt Q92772)", "sequence (Q92772 whole entry)": "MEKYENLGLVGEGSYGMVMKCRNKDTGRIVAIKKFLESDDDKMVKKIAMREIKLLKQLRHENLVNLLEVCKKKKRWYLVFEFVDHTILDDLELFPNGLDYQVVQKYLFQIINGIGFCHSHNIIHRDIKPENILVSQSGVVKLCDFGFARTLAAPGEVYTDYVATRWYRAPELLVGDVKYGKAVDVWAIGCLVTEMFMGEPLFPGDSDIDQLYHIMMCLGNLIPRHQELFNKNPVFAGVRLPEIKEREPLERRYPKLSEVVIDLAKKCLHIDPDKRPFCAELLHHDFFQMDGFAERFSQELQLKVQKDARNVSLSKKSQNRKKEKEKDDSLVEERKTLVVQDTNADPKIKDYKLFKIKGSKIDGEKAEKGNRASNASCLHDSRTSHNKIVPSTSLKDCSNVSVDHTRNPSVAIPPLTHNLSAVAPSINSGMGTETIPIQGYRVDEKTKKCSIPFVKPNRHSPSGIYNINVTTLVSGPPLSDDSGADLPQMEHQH"}, "CDC42BPA": {"target": "CDC42BPA (Homo sapiens, UniProt Q5VT25)"}, "MAPK6": {"target": "MAPK6 (Homo sapiens, UniProt Q16659)"}, "STK24": {"target": "STK24 (Homo sapiens, UniProt Q9Y6E0)", "sequence (Q9Y6E0 whole entry)": "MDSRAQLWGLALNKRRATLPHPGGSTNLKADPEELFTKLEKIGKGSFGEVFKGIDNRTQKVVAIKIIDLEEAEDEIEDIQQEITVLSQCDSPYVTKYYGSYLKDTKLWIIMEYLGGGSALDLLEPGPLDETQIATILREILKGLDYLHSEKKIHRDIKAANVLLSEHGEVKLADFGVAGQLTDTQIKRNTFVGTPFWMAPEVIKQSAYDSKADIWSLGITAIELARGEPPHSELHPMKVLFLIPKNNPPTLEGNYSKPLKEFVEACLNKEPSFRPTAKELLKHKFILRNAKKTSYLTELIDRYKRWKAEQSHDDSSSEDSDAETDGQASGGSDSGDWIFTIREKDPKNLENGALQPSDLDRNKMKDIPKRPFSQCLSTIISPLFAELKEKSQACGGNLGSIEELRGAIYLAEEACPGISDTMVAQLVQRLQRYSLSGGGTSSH"}, "PAK6": {"target": "PAK6 (Homo sapiens, UniProt Q9NQU5)"}, "MAP2K1": {"target": "MAP2K1 (Homo sapiens, UniProt Q02750)"}, "CDC42BPB": {"target": "CDC42BPB (Homo sapiens, UniProt Q9Y5S2)"}, "CDK17": {"target": "CDK17 (Homo sapiens, UniProt Q00537)"}, "MAP4K4": {"target": "MAP4K4 (Homo sapiens, UniProt O95819)"}, "RIOK2": {"target": "RIOK2 (Homo sapiens, UniProt Q9BVS4)", "sequence (Q9BVS4 whole entry)": "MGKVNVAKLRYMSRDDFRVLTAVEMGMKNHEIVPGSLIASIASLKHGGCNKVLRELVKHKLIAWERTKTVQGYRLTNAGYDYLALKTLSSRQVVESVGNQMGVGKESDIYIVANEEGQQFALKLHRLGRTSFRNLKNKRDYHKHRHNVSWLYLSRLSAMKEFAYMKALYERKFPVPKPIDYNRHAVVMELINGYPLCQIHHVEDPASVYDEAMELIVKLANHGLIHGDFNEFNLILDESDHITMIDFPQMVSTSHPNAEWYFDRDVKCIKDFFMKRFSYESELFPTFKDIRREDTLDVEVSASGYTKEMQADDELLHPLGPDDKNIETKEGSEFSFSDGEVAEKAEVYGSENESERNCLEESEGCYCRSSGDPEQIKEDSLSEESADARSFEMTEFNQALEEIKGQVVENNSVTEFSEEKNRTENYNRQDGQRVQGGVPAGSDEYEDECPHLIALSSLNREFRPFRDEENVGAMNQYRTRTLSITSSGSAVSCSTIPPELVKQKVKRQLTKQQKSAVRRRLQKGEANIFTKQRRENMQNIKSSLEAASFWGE"}, "DMPK": {"target": "DMPK (Homo sapiens, UniProt Q09013)"}, "BMP2K": {"target": "BMP2K (Homo sapiens, UniProt Q9NSY1)"}, "DAPK3": {"target": "DAPK3 (Homo sapiens, UniProt O43293)", "sequence (O43293 whole entry)": "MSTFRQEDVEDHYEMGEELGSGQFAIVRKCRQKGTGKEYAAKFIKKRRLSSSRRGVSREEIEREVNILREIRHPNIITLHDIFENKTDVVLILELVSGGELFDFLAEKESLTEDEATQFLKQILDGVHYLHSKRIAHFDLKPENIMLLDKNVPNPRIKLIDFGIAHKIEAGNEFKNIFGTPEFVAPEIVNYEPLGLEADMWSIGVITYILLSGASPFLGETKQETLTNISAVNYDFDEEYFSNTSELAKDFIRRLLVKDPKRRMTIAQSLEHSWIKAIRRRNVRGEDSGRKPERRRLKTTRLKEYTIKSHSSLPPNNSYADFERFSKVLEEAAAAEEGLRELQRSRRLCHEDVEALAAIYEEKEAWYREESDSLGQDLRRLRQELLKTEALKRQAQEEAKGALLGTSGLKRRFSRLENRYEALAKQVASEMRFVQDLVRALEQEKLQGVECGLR"}, "WNK3": {"target": "WNK3 (Homo sapiens, UniProt Q9BYP7)", "sequence (Q9BYP7 whole entry)": "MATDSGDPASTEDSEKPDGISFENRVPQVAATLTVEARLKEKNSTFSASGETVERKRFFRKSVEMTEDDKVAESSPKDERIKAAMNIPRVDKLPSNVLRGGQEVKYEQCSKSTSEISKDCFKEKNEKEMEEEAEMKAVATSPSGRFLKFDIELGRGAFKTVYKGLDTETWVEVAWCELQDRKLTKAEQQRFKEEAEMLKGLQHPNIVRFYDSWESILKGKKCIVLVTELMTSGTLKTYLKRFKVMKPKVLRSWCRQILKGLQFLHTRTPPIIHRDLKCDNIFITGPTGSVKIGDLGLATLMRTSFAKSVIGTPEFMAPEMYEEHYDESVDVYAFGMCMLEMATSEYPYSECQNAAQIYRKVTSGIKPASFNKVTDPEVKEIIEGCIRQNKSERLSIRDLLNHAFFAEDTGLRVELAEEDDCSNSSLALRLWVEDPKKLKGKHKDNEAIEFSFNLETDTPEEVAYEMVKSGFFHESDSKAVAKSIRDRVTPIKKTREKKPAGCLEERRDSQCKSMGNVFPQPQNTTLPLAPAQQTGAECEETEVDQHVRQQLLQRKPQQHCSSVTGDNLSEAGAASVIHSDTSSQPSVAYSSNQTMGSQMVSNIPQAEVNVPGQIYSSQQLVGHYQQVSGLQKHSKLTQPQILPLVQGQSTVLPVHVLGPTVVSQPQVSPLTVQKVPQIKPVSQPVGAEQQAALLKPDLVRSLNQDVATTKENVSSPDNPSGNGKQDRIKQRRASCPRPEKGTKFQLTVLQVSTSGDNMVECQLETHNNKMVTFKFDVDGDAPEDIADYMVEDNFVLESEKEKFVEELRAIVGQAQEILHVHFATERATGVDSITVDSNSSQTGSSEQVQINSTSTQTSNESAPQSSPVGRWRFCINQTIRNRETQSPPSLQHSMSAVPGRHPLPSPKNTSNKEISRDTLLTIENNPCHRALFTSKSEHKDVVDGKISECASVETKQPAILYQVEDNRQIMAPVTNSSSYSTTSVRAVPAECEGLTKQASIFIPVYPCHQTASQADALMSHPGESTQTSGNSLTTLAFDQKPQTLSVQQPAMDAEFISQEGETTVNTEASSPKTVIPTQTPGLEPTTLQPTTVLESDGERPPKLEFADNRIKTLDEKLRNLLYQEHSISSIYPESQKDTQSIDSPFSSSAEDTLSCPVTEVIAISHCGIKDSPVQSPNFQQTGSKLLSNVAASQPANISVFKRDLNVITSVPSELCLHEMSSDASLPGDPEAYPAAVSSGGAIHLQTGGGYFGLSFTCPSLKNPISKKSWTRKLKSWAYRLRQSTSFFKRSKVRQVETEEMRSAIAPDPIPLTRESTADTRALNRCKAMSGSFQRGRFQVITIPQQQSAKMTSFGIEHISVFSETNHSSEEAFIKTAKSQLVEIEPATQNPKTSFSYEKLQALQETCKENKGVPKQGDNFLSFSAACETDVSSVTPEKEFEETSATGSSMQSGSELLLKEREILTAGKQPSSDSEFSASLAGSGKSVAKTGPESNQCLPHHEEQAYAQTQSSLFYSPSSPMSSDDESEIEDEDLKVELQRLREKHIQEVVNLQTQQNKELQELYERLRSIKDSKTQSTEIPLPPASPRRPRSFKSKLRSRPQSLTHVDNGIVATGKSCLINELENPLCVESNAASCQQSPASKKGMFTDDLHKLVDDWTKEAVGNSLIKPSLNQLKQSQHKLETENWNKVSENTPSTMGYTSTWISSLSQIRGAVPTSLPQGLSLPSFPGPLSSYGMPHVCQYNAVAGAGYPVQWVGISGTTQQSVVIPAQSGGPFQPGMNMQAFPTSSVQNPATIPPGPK"}, "NEK1": {"target": "NEK1 (Homo sapiens, UniProt Q96PY6)"}, "TYRO3": {"target": "TYRO3 (Homo sapiens, UniProt Q06418)"}, "TRIB1": {"target": "TRIB1 (Homo sapiens, UniProt Q96RU8)"}, "JAK1": {"target": "JAK1 (Homo sapiens, UniProt P23458)"}, "ACVR2A": {"target": "ACVR2A (Homo sapiens, UniProt P27037)"}, "ACVRL1": {"target": "ACVRL1 (Homo sapiens, UniProt P37023)"}, "STK17A": {"target": "STK17A (Homo sapiens, UniProt Q9UEE5)"}, "ACVR2B": {"target": "ACVR2B (Homo sapiens, UniProt Q13705)"}, "GSG2": {"target": "GSG2 (Homo sapiens, UniProt Q8TF76)"}, "ACVR1B": {"target": "ACVR1B (Homo sapiens, UniProt P36896)"}},
  "data": [
    {"smiles": "CCN1/C(=C/C(C)=O)Sc2ccc(OC)cc21", "note": "[compound 2, TG003]", "values": [
      {"measurement": "ΔTm inhibitor 2", "setting": "CAMK2B", "value": 0.3, "unit": "°C"},
      {"measurement": "ΔTm inhibitor 2", "setting": "AKT3", "value": 0.0, "unit": "°C"},
      {"measurement": "ΔTm inhibitor 2", "setting": "MAPK13", "value": 0.4, "unit": "°C"},
      {"measurement": "ΔTm inhibitor 2", "setting": "STK32A", "value": -0.2, "unit": "°C"},
      {"measurement": "ΔTm inhibitor 2", "setting": "CDK6", "value": 0.4, "unit": "°C"},
      {"measurement": "ΔTm inhibitor 2", "setting": "IKBKB", "value": 0.1, "unit": "°C"},
      {"measurement": "ΔTm inhibitor 2", "setting": "CDK4", "value": -0.6, "unit": "°C"},
      {"measurement": "ΔTm inhibitor 2", "setting": "CDKL2", "value": -0.5, "unit": "°C"},
      {"measurement": "ΔTm inhibitor 2", "setting": "CDC42BPA", "value": -0.4, "unit": "°C"},
      {"measurement": "ΔTm inhibitor 2", "setting": "MAPK6", "value": 0.0, "unit": "°C"},
      {"measurement": "ΔTm inhibitor 2", "setting": "STK24", "value": -0.2, "unit": "°C"},
      {"measurement": "ΔTm inhibitor 2", "setting": "PAK6", "value": -0.9, "unit": "°C"},
      {"measurement": "ΔTm inhibitor 2", "setting": "MAP2K1", "value": -0.1, "unit": "°C"},
      {"measurement": "ΔTm inhibitor 2", "setting": "CDC42BPB", "value": 0.3, "unit": "°C"},
      {"measurement": "ΔTm inhibitor 2", "setting": "CDK17", "value": 0.0, "unit": "°C"},
      {"measurement": "ΔTm inhibitor 2", "setting": "MAP4K4", "value": -0.1, "unit": "°C"},
      {"measurement": "ΔTm inhibitor 2", "setting": "RIOK2", "value": -0.2, "unit": "°C"},
      {"measurement": "ΔTm inhibitor 2", "setting": "DMPK", "value": 1.0, "unit": "°C"},
      {"measurement": "ΔTm inhibitor 2", "setting": "BMP2K", "value": 0.2, "unit": "°C"},
      {"measurement": "ΔTm inhibitor 2", "setting": "DAPK3", "value": 0.9, "unit": "°C"},
      {"measurement": "ΔTm inhibitor 2", "setting": "WNK3", "value": -0.3, "unit": "°C"},
      {"measurement": "ΔTm inhibitor 2", "setting": "NEK1", "value": -0.3, "unit": "°C"},
      {"measurement": "ΔTm inhibitor 2", "setting": "TYRO3", "value": 0.1, "unit": "°C"},
      {"measurement": "ΔTm inhibitor 2", "setting": "TRIB1", "value": 0.2, "unit": "°C"},
      {"measurement": "ΔTm inhibitor 2", "setting": "JAK1", "value": 0.1, "unit": "°C"}
    ]},
    {"smiles": "CC(=O)c1cccc(-c2cnc3ccc(NCC4CC4)nn23)c1", "note": "[compound 1, K00135]", "values": [
      {"measurement": "ΔTm inhibitor 1", "setting": "CAMK2B", "value": 0.2, "unit": "°C"},
      {"measurement": "ΔTm inhibitor 1", "setting": "AKT3", "value": 0.4, "unit": "°C"},
      {"measurement": "ΔTm inhibitor 1", "setting": "ACVR2A", "value": 4.0, "unit": "°C"},
      {"measurement": "ΔTm inhibitor 1", "setting": "CDK6", "value": 0.1, "unit": "°C"},
      {"measurement": "ΔTm inhibitor 1", "setting": "ACVRL1", "value": 11.1, "unit": "°C"},
      {"measurement": "ΔTm inhibitor 1", "setting": "STK17A", "value": 3.4, "unit": "°C"},
      {"measurement": "ΔTm inhibitor 1", "setting": "MAPK6", "value": 0.4, "unit": "°C"},
      {"measurement": "ΔTm inhibitor 1", "setting": "ACVR2B", "value": 7.4, "unit": "°C"},
      {"measurement": "ΔTm inhibitor 1", "setting": "PAK6", "value": 1.1, "unit": "°C"},
      {"measurement": "ΔTm inhibitor 1", "setting": "RIOK2", "value": 0.3, "unit": "°C"},
      {"measurement": "ΔTm inhibitor 1", "setting": "DMPK", "value": 1.0, "unit": "°C"},
      {"measurement": "ΔTm inhibitor 1", "setting": "BMP2K", "value": 10.7, "unit": "°C"},
      {"measurement": "ΔTm inhibitor 1", "setting": "DAPK3", "value": 2.8, "unit": "°C"},
      {"measurement": "ΔTm inhibitor 1", "setting": "WNK3", "value": 0.0, "unit": "°C"},
      {"measurement": "ΔTm inhibitor 1", "setting": "GSG2", "value": 6.5, "unit": "°C"},
      {"measurement": "ΔTm inhibitor 1", "setting": "TYRO3", "value": 0.4, "unit": "°C"},
      {"measurement": "ΔTm inhibitor 1", "setting": "ACVR1B", "value": 9.1, "unit": "°C"},
      {"measurement": "ΔTm inhibitor 1", "setting": "JAK1", "value": 6.4, "unit": "°C"}
    ]},
    {"smiles": "Nc1nccc(-c2ccc3noc(-c4ccc(Cl)cc4)c3c2)n1", "note": "[compound 4, K00972]", "values": [
      {"measurement": "ΔTm inhibitor 4", "setting": "MAPK13", "value": 0.5, "unit": "°C"},
      {"measurement": "ΔTm inhibitor 4", "setting": "STK32A", "value": 0.2, "unit": "°C"},
      {"measurement": "ΔTm inhibitor 4", "setting": "ACVR2A", "value": 0.3, "unit": "°C"},
      {"measurement": "ΔTm inhibitor 4", "setting": "ACVRL1", "value": 1.2, "unit": "°C"},
      {"measurement": "ΔTm inhibitor 4", "setting": "IKBKB", "value": 1.5, "unit": "°C"},
      {"measurement": "ΔTm inhibitor 4", "setting": "CDK4", "value": 1.5, "unit": "°C"},
      {"measurement": "ΔTm inhibitor 4", "setting": "CDKL2", "value": 0.1, "unit": "°C"},
      {"measurement": "ΔTm inhibitor 4", "setting": "STK17A", "value": 2.2, "unit": "°C"},
      {"measurement": "ΔTm inhibitor 4", "setting": "CDC42BPA", "value": 0.6, "unit": "°C"},
      {"measurement": "ΔTm inhibitor 4", "setting": "ACVR2B", "value": 0.0, "unit": "°C"},
      {"measurement": "ΔTm inhibitor 4", "setting": "STK24", "value": 0.8, "unit": "°C"},
      {"measurement": "ΔTm inhibitor 4", "setting": "MAP2K1", "value": 0.2, "unit": "°C"},
      {"measurement": "ΔTm inhibitor 4", "setting": "CDC42BPB", "value": 0.2, "unit": "°C"},
      {"measurement": "ΔTm inhibitor 4", "setting": "CDK17", "value": 0.4, "unit": "°C"},
      {"measurement": "ΔTm inhibitor 4", "setting": "MAP4K4", "value": 0.2, "unit": "°C"},
      {"measurement": "ΔTm inhibitor 4", "setting": "GSG2", "value": 4.0, "unit": "°C"},
      {"measurement": "ΔTm inhibitor 4", "setting": "NEK1", "value": 0.6, "unit": "°C"},
      {"measurement": "ΔTm inhibitor 4", "setting": "TRIB1", "value": 0.1, "unit": "°C"},
      {"measurement": "ΔTm inhibitor 4", "setting": "ACVR1B", "value": 1.1, "unit": "°C"}
    ]}
  ]
}
